According to paper PMC5038983 (The Journal of neuroscience : the official journal of the …, 2011):

Target: T1, PME-1 (PP2A-specific methylesterase) (Homo sapiens, UniProt Q9Y570)
T1 sequence (Q9Y570 2-386): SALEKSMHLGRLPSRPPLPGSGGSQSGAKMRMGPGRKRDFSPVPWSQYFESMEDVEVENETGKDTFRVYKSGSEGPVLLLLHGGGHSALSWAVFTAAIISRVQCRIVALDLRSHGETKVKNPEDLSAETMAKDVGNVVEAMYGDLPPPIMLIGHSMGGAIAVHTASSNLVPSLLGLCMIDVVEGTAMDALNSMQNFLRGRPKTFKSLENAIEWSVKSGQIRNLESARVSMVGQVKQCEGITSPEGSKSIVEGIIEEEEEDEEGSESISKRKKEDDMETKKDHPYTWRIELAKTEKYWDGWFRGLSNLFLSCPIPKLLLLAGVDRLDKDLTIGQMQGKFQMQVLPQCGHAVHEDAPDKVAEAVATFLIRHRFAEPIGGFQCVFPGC
Type: biochemical

- IC50: 3.9 µM
Compound: CCCCCCCCCCCCCCCCCCCC(=O)NCCc1c[nH]c2ccc(O)cc12 [EHT, eicosinoyl-5-hydroxytryptamide]
